Series [1] relates to fluconazole resistant C. alibcans, Cryptococcus sp. and Aspergillus sp. The experiment in a line: MIC summary for fungi. The class given is cell-based. As to conditions: Candida albicans, read-out: minimum inhibitory concentration (MIC). Here is the method:
(§1) Synthetic pure albicanol and drimenol were dissolved in DMSO (10 mg/ml as stock solution) and used to determine their antifungal activities (minimum inhibitory concentration, MIC) against various fungi according to the microdilution assay of Clinical and Laboratory Standards Institute (CLSI (2008). Reference method for broth dilution antifungal susceptibility testing of yeasts and filamentous fungi: Approved Standard-Third Edition. Clinical and Laboratory Standards Institute 940 West Valley Road, Wayne, Pa. CLSI document M27-A3 & M38-A28. An initial assay had confirmed the antifungal activity of albicanol and drimenol; therefore, the susceptibility assay was extended to other pathogenic fungi including fluconazole resistant C. albicans, various species of candida, Cryptococcus, Aspergillus and a dermatophyte fungus.
(§2) Yeast cells or conidia (for filamentous fungi) were suspended in RPMI 1640 (with 50 mM glucose) medium to a final concentration of 10^4 cfu/ml and distributed in a 96-well microplate to a total volume of 100 μl/well. […] The MIC was defined as the lowest compound concentration at which no growth occurred, as determined visually and by OD600 measurement (or microscopically, inverted). […] Cytotoxicity of albicanol and drimenol was determined using human intestinal epithelial cell lines (Int-407) by utilizing cell viability assay kit of Promega.

A further series relates to various fungi. The experiment in a line: Fungal EC50 and selective index summary. The series is classed as cell-based. The note with it: against various fungi; read-out: effective fungal concentration-50 (EC50). The protocol: (§3) Yeast cells or conidia (for filamentous fungi) were suspended in RPMI 1640 (with 50 mM glucose) medium to a final concentration of 10^4 cfu/ml and distributed in a 96-well microplate to a total volume of 100 μl/well. Albicanol and drimenol were added into the wells and serial dilutions (broad or narrow range) with replicates were made, and wells with or without DMSO served as controls. Plates were incubated without shaking at 37° C. for 24-48 h for yeasts and 30° C. for 4 days for filamentous fungi (Aspergillus and Trichophyton sp). The MIC was defined as the lowest compound concentration at which no growth occurred, as determined visually and by OD600 measurement (or microscopically, inverted). As a positive control, amphotericin B (AMB) (1 μg/ml) was also included in parallel. Cytotoxicity of albicanol and drimenol was determined using human intestinal epithelial cell lines (Int-407) by utilizing cell viability assay kit of Promega.

Series [2] is described as follows: Cytotoxicity, Promega's cell viability assay kit. The series is classed as cell-based. The note with it: human, Int-407 intestinal epithelial cells; summary in description; read-out: cytotoxic inhibitory concentration (IC50) against Int. 407. Here is the method:
as §3

Series [3] has as its system Caenorhabditis elegans (worm). The experiment in a line: Toxicity to worms in the Candidiasis model. The class given is in vivo. The note with it: at concentrations that inhibit fungal growth. Here is the method: (§4) In order to determine antifungal efficacy and toxicity of albicanol and drimenol simultaneously, Caenorhabditis elegans (worm), a non-mammalian host model of Candidiasis was used. Worms fed with C. albicans yeast cells were incubated in RPMI medium in the presence or absence of drimenol. After 4-5 days worms were scored for survival under an inverted microscope and images were recorded. […] Note dead worms (straight shapes) and clusters of fungal growth in wells without drimenol (−Dri).

The subject of the next series is dermatophyte fungi. The experiment in a line: MIC summary for dermatophyte fungi. The class given is cell-based. The protocol:
as §1, §2

The subject of a further series is Cryp. neoformans. Description: CLSI microdilution antifungal susceptibility assay. The class given is cell-based. As to conditions: for EC50 / MIC: Cryptococcus neoformans; for EC50: 50% fungal inhibitory concentration; for MIC: lowest concentration with no fungal growth, CLSI. Here is the method: as §1, §3
Background: In broth dilution the organism is exposed to a series of concentrations in liquid medium.

A further series deals with C. albicans Day 185. Description: CLSI microdilution antifungal susceptibility assay. The note with it: for EC50 / MIC: Candida albicans; for EC50: DAY185, 50% fungal inhibitory concentration; for MIC: DAY185, lowest concentration with no fungal growth, CLSI. The class given is cell-based. Here is the method: as §1, §3
A further series concerns T. equinum. Description: CLSI microdilution antifungal susceptibility assay. The series is classed as cell-based. The note with it: for EC50: 50% fungal inhibitory concentration; for MIC: lowest concentration with no fungal growth, CLSI. The protocol:
as §1, §3

In another series the test system is C. albicans SC5314. Description: CLSI microdilution antifungal susceptibility assay. The class given is cell-based. As to conditions: for EC50 / MIC: Candida albicans; for EC50: 50% fungal inhibitory concentration; for MIC: lowest concentration with no fungal growth, CLSI. The protocol: as §1, §3
Series [4] has as its system A. nidulans, C. albicans, C. albicans 95-158 Flu-R, Cryp. neomormans, Candida krusei, and C. glabrata. The experiment in a line: Fungicidal test, viability of treated fungal cells spotted on YPD agar. The note with it: for effect of amines or YPD medium on bioactivity: presence of amines or YPD medium. The series is classed as cell-based.
A further series relates to C. albicans. Description: Caenorhabditis elegans host model of Candidiasis. The series is classed as in vivo. As to conditions: 50 μg/ml; RPMI medium; scored after 4-5 days. Here is the method:
as §4

For series [5], the system named is barcoded mutants of Saccharomyces cerevisiae. Description: Genome-wide fitness (haploinsufficiency) profiling, yeast TAG4 microarray. The class given is cell-based. The note with it: at 20% growth inhibitory concentration; 20 generations.

Converted amounts (≈) assume the structure as drawn.

As for `C=C1CC[C@H]2C(C)(C)CCC[C@]2(C)[C@H]1CO` [Albicanol, (+)-albicanol], the MIC in series [1] was 25 to 50 µg/mL (≈ 112 to 225 µM); with dermatophyte fungi it was 5 to 15 µg/mL (≈ 22.5 to 67.5 µM); with Cryp. neoformans, 40 µg/mL (≈ 180 µM); in the series with C. albicans Day 185, 40 µg/mL (≈ 180 µM); against T. equinum, 15 µg/mL (≈ 67.5 µM); in the series on C. albicans SC5314, 50 µg/mL (≈ 225 µM). The EC50 in the series on various fungi is 5 to 30 µg/mL (≈ 22.5 to 135 µM); in the series on Cryp. neoformans, 22 µg/mL (≈ 98.9 µM); with C. albicans Day 185, 22 µg/mL (≈ 98.9 µM); in the series on T. equinum, 8 µg/mL (≈ 36 µM); in the series on C. albicans SC5314, 25 µg/mL (≈ 112 µM). Moreover, the CC50 in series [2] is around 50 µg/mL (≈ 225 µM). For the same molecule, in series [3], the cytotoxicity to worms result is on record as “less or no cytotoxicity to worms”. For the same molecule, the “Selective Index (Int-407 IC50/fungal EC50)” value is listed as 2.27 with Cryp. neoformans, 2.27 in the series on C. albicans Day 185, 6.25 (6.25) in the series with T. equinum and 2 in the series with C. albicans SC5314. The “effect of amines or YPD medium on bioactivity” value in series [4] is listed as “not affected”.
For `CC1=CC[C@H]2C(C)(C)CCC[C@]2(C)[C@H]1CO` [drimenol, (−)-drimenol], in the series with C. albicans, the “protection of worms from C. albicans mediated death” value is “prevented C. albicans growth and protected worms from C. albicans mediated death”. Besides, the MIC is 25 to 50 µg/mL (≈ 112 to 225 µM) in [1]; 5 to 15 µg/mL (≈ 22.5 to 67.5 µM) in the series on dermatophyte fungi; 30 µg/mL (≈ 135 µM) in the series on Cryp. neoformans; 25 µg/mL (≈ 112 µM) with C. albicans Day 185; 5 µg/mL (≈ 22.5 µM) in the series with T. equinum; 40 µg/mL (≈ 180 µM) against C. albicans SC5314. In addition, the EC50 in the series with various fungi was 5 to 30 µg/mL (≈ 22.5 to 135 µM); in the series with Cryp. neoformans it was 16 µg/mL (≈ 72 µM); in the series with C. albicans Day 185, 12 µg/mL (≈ 54 µM); with T. equinum, 8 µg/mL (≈ 36 µM); in the series on C. albicans SC5314 it was 22 µg/mL (≈ 98.9 µM). In [5], the “strains/genes depleted at the log ratio of >1.5” value worked out at 34. Also, the CC50 in series [2] was around 50 µg/mL (≈ 225 µM). Also, the cytotoxicity to worms entry in series [3] was “less or no cytotoxicity to worms”. In addition, the “Selective Index (Int-407 IC50/fungal EC50)” value is reported as 3.12 in the series with Cryp. neoformans, 4.16 in the series on C. albicans Day 185, 6.25 (6.25) in the series on T. equinum and 2.27 in the series with C. albicans SC5314. For the same molecule, the MFC in series [4] (all the fungi tested, 100 μg/ml for 48 h, read-out: minimum fungicidal concentration, MFC) came out at 100 µg/mL (≈ 450 µM). Further, the “effect of amines or YPD medium on bioactivity” value in series [4] is recorded as “not affected”.
